Measurements published in patent publication US20140023611A1 (priority 2010, published 2014).

Tests used:
[1] = Determination of compound Cmax and AUC after oral gavage (plasma LC-MS/MS); assay type: in vivo, Sprague-Dawley rats; details: Sprague-Dawley, rat, plasma, po
Protocol: (§1) Sprague-Dawley rats were orally gavaged with test article at a nominal dose of 2.5 or 10 mg/kg and blood was collected at 0.5, 1, 2 and 4 h. Blood samples were processed to plasma using K2EDTA as an anticoaglulant. Plasma samples were treated with acetonitrile containing an internal standard, precipitated proteins removed by centrifugation. Supernatants were analyzed by LC-MS/MS and compound concentrations were determined by interpolation from a standard curve prepared in plasma. All compounds were orally dosed at the dosage shown, and pharmacokinetic parameters determined.
as §1, with “interpolated” for “interpolation”
as §1, with “interpolated” for “interpolation”

rat NaP2b (SLC34A2) = biological target: T1, rat NaP2b (SLC34A2) (Rattus norvegicus, UniProt Q9JJ09); test: Inhibition of NaP2b-mediated Pi (33P) uptake in transfected HEK293 cells, rat NaP2b; assay type: cell-based; details: 33P Pi uptake, 0.1 mM phosphate, value given as pIC50 range
T1 construct: host or cells: HEK293
T1 sequence (Q9JJ09 1-695): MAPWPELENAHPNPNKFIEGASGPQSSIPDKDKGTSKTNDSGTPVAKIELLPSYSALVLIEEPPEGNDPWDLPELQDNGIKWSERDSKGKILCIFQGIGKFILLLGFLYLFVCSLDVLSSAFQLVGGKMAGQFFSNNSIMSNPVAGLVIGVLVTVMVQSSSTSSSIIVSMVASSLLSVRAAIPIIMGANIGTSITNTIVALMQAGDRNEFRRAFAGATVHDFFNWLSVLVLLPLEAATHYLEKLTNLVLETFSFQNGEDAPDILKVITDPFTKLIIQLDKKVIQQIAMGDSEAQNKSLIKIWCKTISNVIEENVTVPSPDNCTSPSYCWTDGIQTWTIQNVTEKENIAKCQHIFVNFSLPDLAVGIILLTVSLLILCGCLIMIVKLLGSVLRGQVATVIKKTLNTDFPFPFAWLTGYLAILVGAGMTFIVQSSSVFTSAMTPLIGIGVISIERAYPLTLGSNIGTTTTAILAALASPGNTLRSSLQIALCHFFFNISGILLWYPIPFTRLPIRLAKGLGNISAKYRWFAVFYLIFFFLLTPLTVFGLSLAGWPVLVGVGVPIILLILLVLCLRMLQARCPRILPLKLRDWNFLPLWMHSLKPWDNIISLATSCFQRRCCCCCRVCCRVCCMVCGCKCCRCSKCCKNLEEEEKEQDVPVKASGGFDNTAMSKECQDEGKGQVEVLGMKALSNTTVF
Procedure, shortened: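 The cells transiently expressed NaP2b after Lipofectamine transfection. Each compound was run in duplicate over twelve concentrations, 0.1 nM–30 uM.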

[2] = Structure (II) examples, Table 6, actual oral dose 7.6-11 mg/kg
[3] = Structure (I) examples, Table 15, actual oral dose 3-15 mg/kg, plasma 0.5-4 h
[4] = Structure (III) examples, Table 6, actual oral dose 8.9-10 mg/kg

IC50 (rat NaP2b (SLC34A2)) [µM] | SMILES | further results
 | O=C(O)CCOCCOCCOCCNC(=O)Cc1cccc(SCc2cccc(C(=O)Nc3ccc(N4CCCCC4)cc3C(=O)Nc3ccn(-c4cccc(C(F)(F)F)c4)n3)c2)c1 [Example 26] | Cmax [1, 2]: 3 ng/mL
 | CN(CCN1CCOCC1)C(=O)c1cccc(C(=O)Nc2ccc(OC3CCC3)cc2-c2cc(C(=O)NCc3cccc(C(F)(F)F)c3)ccn2)c1 [Example 26] | AUC [1, 3]: < 30 ng·h/mL; Cmax [1, 3]: < 30 ng/mL
 | O=C(O)CCSCc1cccc(C(=O)Nc2ccc(N3CCCCC3)cc2C(=O)Nc2ccn(-c3cccc(C(F)(F)F)c3)n2)c1 [Example 7] | AUC [1, 2]: 467 ng·h/mL; Cmax [1, 2]: 393 ng/mL
 | CN(CCN1CCOCC1)C(=O)c1cccc(C(=O)Nc2ccc(N3CCCCC3)cc2C(=O)Nc2cnc(-c3ccccc3)nc2)c1 [Example 11] | AUC [1, 4]: 140 ng·h/mL; Cmax [1, 4]: 70 ng/mL
 | CN(CCN1CCOCC1)C(=O)c1cccc(C(=O)Nc2ccc(N3CCCCC3)cc2C(=O)Nc2ccn(-c3cccc(C(F)(F)F)c3)n2)c1 [Example 11] | AUC [1, 2]: 9.8 ng·h/mL; Cmax [1, 2]: 5 ng/mL
10 to 31.6 | O=C(NCCOCCO)c1cccc(C(=O)Nc2ccc(Cl)cc2-c2cc(NCc3cccc(C(F)(F)F)c3)ncn2)c1 [Example 65, N1-(4-Chloro-2-(6-((3-(trifluoromethyl)benzyl)amino)pyrimidin-4-yl)phenyl)-N3-(2-(2-hydroxyethoxy)ethyl)isophthalamide] | 
10 to 31.6 | CC(=O)N[C@H]1CCN(Cc2cccc(C(=O)Nc3ccc(N4CCCCC4)cc3-c3cc(C(=O)NCc4cccc(C(F)(F)F)c4)ccn3)n2)C1 [Example 56, (S)-6-((3-Acetamidopyrrolidin-1-yl)methyl)-N-(4-(piperidin-1-yl)-2-(4-((3-(trifluoromethyl)benzyl)carbamoyl)pyridin-2-yl)phenyl)picolinamide] | 
1 to 7.94 | Cc1ccc(CNC(=O)c2ccnc(-c3cc(N4CCCCC4)ccc3NC(=O)c3cccc(CSCCC(=O)O)c3)c2)cc1C [Example 1.49] | 
10 to 31.6 | CC(=O)N1CCCN(C(=O)CCOCCOCCOCCOCCSCc2cccc(C(=O)Nc3ccc(N4CCCCC4)cc3-c3cc(C(=O)NCc4cccc(C(F)(F)F)c4)ccn3)c2)CC1 [Example 153, 2-(2-(3-(17-(4-acetyl-1,4-diazepan-1-yl)-17-oxo-5,8,11,14-tetraoxa-2-thiaheptadecyl)benzamido)-5-(piperidin-1-yl)phenyl)-N-(3-(trifluoromethyl)benzyl)isonicotinamide] | 
1 to 7.94 | CCN(CC)c1ccc(NC(=O)c2cccc(CCCOCCOCCOCCOCCC(=O)N3CCN(CCOCCOCCOCCOCCOCCOCCOC)C(=O)C3)c2)c(-c2cc(C(=O)NCc3cccc(C(F)(F)F)c3)ccn2)c1 [Example 258, 2-(2-(3-(16-(4-(2,5,8,11,14,17,20-heptaoxadocosan-22-yl)-3-oxopiperazin-1-yl)-16-oxo-4,7,10,13-tetraoxahexadecyl)benzamido)-5-(diethylamino)phenyl)-N-(3-(trifluoromethyl)benzyl)isonicotinamide] | 
< 1 | CCN(CC)c1ccc(NC(=O)c2cccc(C(=O)N(C)CCO)c2)c(-c2cc(C(=O)N[C@H]3CCCc4ccccc43)ccn2)c1 [Example 194, (S)—N^1-(4-(diethylamino)-2-(4-((1,2,3,4-tetrahydronaphthalen-1-yl)carbamoyl)pyridin-2-yl)phenyl)-N^3-(2-hydroxyethyl)-N^3-methylisophthalamide] | 
1 to 7.94 | O=C(O)CCSCc1cccc(C(=O)Nc2ccc(N3CCCCC3)cc2-c2cc(C(=O)NCCc3cccc(C(F)(F)F)c3)ccn2)c1 [Example 1.5] | 
10 to 31.6 | O=C(O)CCSCc1cccc(C(=O)Nc2ccc(N3CCCCC3)cc2-c2cc(C(=O)Nc3ccc4ncsc4c3)ccn2)c1 [Example 1.20] | 
1 to 7.94 | O=C(O)CCCc1cccc(SCc2cccc(C(=O)Nc3ccc(N4CCCCC4)cc3-c3cc(C(=O)NCc4cccc(C(F)(F)F)c4)ccn3)c2)c1 [Example 8.19] | 
1 to 7.94 | CC(NC(=O)c1ccnc(-c2cc(N3CCCCC3)ccc2NC(=O)c2cccc(CSCCC(=O)O)c2)c1)c1cccc(C(F)(F)F)c1 (stereo not drawn) [Example 77, 3-(3-(4-(piperidin-1-yl)-2-(4-(1-(3-(trifluoromethyl)phenyl)ethylcarbamoyl)pyridin-2-yl)phenylcarbamoyl)benzylthio)propanoic acid] | 
1 to 7.94 | O=C(NCc1cccc(C(F)(F)F)c1)c1ccnc(-c2cc(N3CCCCC3)ccc2NC(=O)c2cccc(Cn3ccc4c(C(=O)NCCOCCOCCO)cccc43)c2)c1 [Example 180, N-(2-(2-(2-hydroxyethoxy)ethoxy)ethyl)-1-(3-(4-(piperidin-1-yl)-2-(4-(3-(trifluoromethyl)benzylcarbamoyl)pyridin-2-yl)phenylcarbamoyl)benzyl)-1H-indole-4-carboxamide] | 
10 to 31.6 | O=C(O)CCSCc1cccc(C(=O)Nc2ccc(N3CCCCC3)cc2-c2cc(C(O)c3cccc(C(F)(F)F)c3)ccn2)c1 (stereo not drawn) [Example 6.2, 3-((3-((2-(4-(Hydroxy(3-(trifluoromethyl)phenyl)methyl)pyridin-2-yl)-4-(piperidin-1-yl)phenyl)carbamoyl)benzyl)thio)propanoic acid] | 
10 to 31.6 | O=C(O)CCSCc1cccc(C(=O)Nc2ccc(Cl)cc2-c2cc(NCc3cccc(C(F)(F)F)c3)ncn2)c1 [Example 66, 3-((3-((4-Chloro-2-(6-((3-(trifluoromethyl)benzyl)amino)pyrimidin-4-yl)phenyl)carbamoyl)benzyl)thio)propanoic acid] | 
1 to 7.94 | O=C(O)CCSCc1cccc(C(=O)Nc2ccc(N3CCCCC3)cc2-c2cc(C(=O)NCc3ccccc3OC(F)(F)F)ccn2)c1 [Example 1.43] | 
1 to 7.94 | COCCNC(=O)[C@@H]1CCCN(C(=O)c2cccc(C(=O)Nc3ccc(N4CCCCC4)cc3-c3cc(C(=O)NCc4cccc(C(F)(F)F)c4)ccn3)c2)C1 [Example 4.15, (R)-2-(2-(3-(3-((2-Methoxyethyl)carbamoyl)piperidine-1-carbonyl)benzamido)-5-(piperidin-1-yl)phenyl)-N-(3-(trifluoromethyl)benzyl)isonicotinamide] | 
1 to 7.94 | CN(Cc1nccn1C)C(=O)c1cccc(C(=O)Nc2ccc(N3CCCCC3)cc2-c2cc(C(=O)NCc3cccc(C(F)(F)F)c3)ccn2)c1 [Example 4.25] | 
1 to 7.94 | CC(C)(C)c1ccc(CNC(=O)c2ccnc(-c3cc(N4CCCCC4)ccc3NC(=O)c3cccc(CSCCC(=O)O)c3)c2)cc1 [Example 1.3, 3-((3-((2-(4-((4-(Tert-butyl)benzyl)carbamoyl)pyridin-2-yl)-4-(piperidin-1-yl)phenyl)carbamoyl)benzyl)thio)propanoic acid] | 
1 to 7.94 | CN(CCN1CCOCC1)C(=O)Cc1cccc(SCc2cccc(C(=O)Nc3ccc(N4CCCCC4)cc3-c3cc(C(=O)NCc4cccc(C(F)(F)F)c4)ccn3)c2)c1 [Example 136, 2-(2-(3-((3-(2-(methyl(2-morpholinoethyl)amino)-2-oxoethyl)phenylthio)methyl)benzamido)-5-(piperidin-1-yl)phenyl)-N-(3-(trifluoromethyl)benzyl)isonicotinamide] | 
10 to 31.6 | COc1c(C(=O)Nc2ccc(N3CCCCC3)cc2-c2cc(C(=O)NCc3cccc(C(F)(F)F)c3)ccn2)cccc1C(=O)N(C)CCN1CCOCC1 [Example 11.3, 2-Methoxy-N1-methyl-N1-(2-morpholinoethyl)-N3-(4-(piperidin-1-yl)-2-(4-((3-(trifluoromethyl)benzyl)carbamoyl)pyridin-2-yl)phenyl)isophthalamide] | 
1 to 7.94 | O=C(O)CCSCc1cccc(C(=O)Nc2ccc(N3CCCCC3)cc2-c2cc(NCc3ccc(Cl)c(C(F)(F)F)c3)ncn2)c1 [Example 3.5, 3-((3-((2-(6-((4-Chloro-3-(trifluoromethyl)benzyl)amino)pyrimidin-4-yl)-4-(piperidin-1-yl)phenyl)carbamoyl)benzyl)thio)propanoic acid] | 
1 to 7.94 | O=C(NCc1cccc(C(F)(F)F)c1)c1ccnc(-c2cc(N3CCCCC3)ccc2NC(=O)c2cccc(C(=O)N(CCN3CCOCC3)C3CC3)c2)c1 [Example 4.11, N1-Cyclopropyl-N1-(2-morpholinoethyl)-N3-(4-(piperidin-1-yl)-2-(4-((3-(trifluoromethyl)benzyl)carbamoyl)pyridin-2-yl)phenyl)isophthalamide] | 
